Read-outs that look alike come from different tables or passages of the source.
Experiments:
SD rats [1] = assay: animal or person; assay type: in vivo; conditions: iv; for minimal effective dose: Rattus norvegicus; for Onset time / Righting feflex duration / Sedation Duration / Minimal effective analgesic dose / Minimal effective anesthetic dose: rat, in vivo
SD rats [2] = conditions: rat, in vivo; for MLD: iv
[3] = read-out: Minimal effective anesthetic dose
[4] = read-out: Minimal effective analgesic dose
Wherever Onset time is given: test concentration or dose not given here.
Wherever Righting feflex duration is given: test concentration or dose not given here.
Wherever Sedation Duration is given: test concentration or dose not given here.

| Structure (SMILES) | minimal effective dose (SD rats [1]; [3]) | Onset time (SD rats [1]) | Righting feflex duration (SD rats [1]) | Sedation Duration (SD rats [1]) | TI (SD rats [2]; SD) | MLD (SD rats [2]; SD) | minimal effective dose (SD rats [1]; [4]) | MLD (SD rats [2]) | Minimal effective analgesic dose (SD rats [1]) | Minimal effective anesthetic dose (SD rats [1]) | TI (SD rats [2]) |
| --- | --- | --- | --- | --- | --- | --- | --- | --- | --- | --- | --- |
| CC(C)C(=O)OCCN1N=C(c2ccccn2)c2cc(Br)ccc2N(C)C1=O [Compound 298] | 10 mg/kg | 0.22 to 0.38 min | 6.73 to 8.97 min | 17.03 to 30.07 min | 2 | 20 mg/kg |  |  |  |  |  |
| CN1C(=O)N(COCc2ccccc2)N=C(c2ccccn2)c2cc(Br)ccc21 [Compound 286] | 2.5 mg/kg | 1.32 to 3.20 min | 3.38 to 9.38 min | 42.15 to 64.37 min | 3 | 7.5 mg/kg |  |  |  |  |  |
| CN1C(=O)N(COC(=O)N2CCCC2)N=C(c2ccccn2)c2cc(Br)ccc21 [Compound 295] | 20 mg/kg | 0.20 to 0.52 min | 3.70 to 13.25 min | 34.23 to 172.50 min | 2 | 40 mg/kg |  |  |  |  |  |
| CCOC(=O)CN1N=C(c2ccccn2)c2cc(Br)ccc2-n2c(C)cnc21 [Compound 307] | 8.75 mg/kg | 0.27 to 0.73 min | 0.90 to 4.27 min | 20.87 to 32.75 min | >1.7 | >15.15 mg/kg |  |  |  |  |  |
| CC(F)C(=O)OCCN1N=C(c2ccccn2)c2cc(Br)ccc2N(C)C1=O (stereo not shown) [Compound 303] | 20 mg/kg | 0.43 min | 14.30 min | 74.88 min | >1 | >20 mg/kg |  |  |  |  |  |
| CC(C)OC(=O)CCN1N=C(c2ccccn2)c2cc(Br)ccc2N(C)C1=O [Compound 260] | 40 mg/kg | 0.12 min | 7.52 min | 55.52 min | 1.4 | 55 mg/kg | 40 mg/kg |  |  |  |  |
| CC(C)Oc1nonc1CCN1N=C(c2ccccn2)c2cc(Br)ccc2N(C)C1=O [Compound 275] | 30 mg/kg | 0.93 to 4.90 min | 6.37 to 17.25 min |  | >2 | >60 mg/kg |  |  |  |  |  |
| CC(C)OC(=O)CN1N=C(c2ccccn2)c2cc(Br)ccc2N(C)C1=O [Compound 239] | 5 mg/kg | 0.17 to 0.75 min | 1.30 to 11.58 min | 17.72 to 23.57 min | 8 | 40 mg/kg | 10 mg/kg |  |  |  |  |
| Cc1cnc2n1-c1ccc(Br)cc1C(c1ccccn1)=NN2COC(=O)C(C)C [Compound 318] | 5 mg/kg | 0.52 to 0.63 min | 0.58 to 10.53 min | 24.95 to 35.65 min | >2 | >10 mg/kg |  |  |  |  |  |
| CC(C)COC(=O)CN1N=C(c2ccccn2)c2cc(Br)ccc2N(C)C1=O [Compound 240] | 10 mg/kg | 0.30 to 0.48 min | 0.62 to 15.83 min | 15.27 to 36.70 min | 3 | 30 mg/kg | 30 mg/kg |  |  |  |  |
| CC[C@@H](C)OC(=O)CN1N=C(c2ccccn2)c2cc(Br)ccc2N(C)C1=O [Compound 243] | 5 mg/kg | 0.22 to 0.67 min | 0.65 to 19.85 min | 21.98 to 55.45 min | 6 | 30 mg/kg |  |  |  |  |  |
| CC(C)C(=O)CN1N=C(c2ccccn2)c2cc(Br)ccc2N(C)C1=O [Compound 279] | 15 mg/kg | 0.35 min | 3.77 min | 62.22 min | 1.3 |  |  | 20 mg/kg |  |  |  |
| CC(C)OC(=O)CCC1N=C(c2ccccn2)c2cc3nc(C(F)(F)F)sc3cc2N(C)C1=O (stereo not shown) [Compound 181] |  | 0.8 min | 7.8 min | 53.0 min |  |  |  | >40 mg/kg | 40 mg/kg | 40.0 mg/kg | >1.0 |
| CN(C)C(=O)OCCN1N=C(c2ccccn2)c2cc(Br)ccc2N(C)C1=O [Compound 304] | 5 mg/kg | 0.18 to 0.57 min | 1.92 to 5.35 min | 10.57 to 18.57 min | 4 | 20 mg/kg |  |  |  |  |  |
| CCN(C)C(=O)OCN1N=C(c2ccccn2)c2cc(Br)ccc2N(C)C1=O [Compound 292] | 20 mg/kg | 0.40 min | 2.75 min | 46.82 min | 1.5 | 30 mg/kg | 20 mg/kg |  |  |  |  |
| Cc1cnc2n1-c1ccc(Br)cc1C(c1ccccn1)=NC2CCOC(=O)CCl (stereo not shown) [Compound 148] |  | 0.2 to 1.1 min | 1.0 to 60.8 min | 20.1 to 82.4 min |  |  |  | 60 mg/kg |  | 1.8 mg/kg | 33.3 |

| Structure (SMILES) | minimal effective dose (SD rats [1]; [3]) | Onset time (SD rats [1]) | Righting feflex duration (SD rats [1]) | Sedation Duration (SD rats [1]) | TI (SD rats [2]; SD) | MLD (SD rats [2]; SD) | minimal effective dose (SD rats [1]; [4]) | MLD (SD rats [2]) | Minimal effective analgesic dose (SD rats [1]) | Minimal effective anesthetic dose (SD rats [1]) | TI (SD rats [2]) |
| --- | --- | --- | --- | --- | --- | --- | --- | --- | --- | --- | --- |
| CC(=O)C(C)(C)OC(=O)CCC1N=C(c2ccccn2)c2cc(Br)ccc2-n2c(C)cnc21 (stereo not shown) [Compound 6] |  | 0.3 to 0.8 min | 0.6 to 3.4 min | 4.0 to 10.7 min |  |  |  | >5 mg/kg |  | 1.3 mg/kg | >3.8 |
| CN1C(=O)N(CC(=O)OC2CC2)N=C(c2ccccn2)c2cc(Br)ccc21 [Compound 244] | 15 mg/kg | 0.15 to 0.18 min | 0.78 to 3.85 min | 11.42 to 18.83 min | 2.7 | 40 mg/kg |  |  |  |  |  |
| Cc1cnc2n1-c1ccc(Br)cc1C(c1ccccn1)=NC2CCOC(=O)CCCl (stereo not shown) [Compound 150] |  | 0.2 to 0.4 min | 0.8 to 13.5 min | 16.9 to 33.9 min |  |  |  | 13.7 mg/kg |  | 2.5 mg/kg | 5.5 |
| CCOC(=O)CCC1N=C(c2ccccn2)c2cc([N+](=O)[O-])ccc2N(C)C1=O (stereo not shown) [Compound 28] |  | 0.2 to 0.5 min | 0.5 to 1.6 min | 4.1 to 7.3 min |  |  |  | >11.3 mg/kg |  | 5.0 mg/kg | >2.3 |
| Cc1cnc2n1-c1ccc(Br)cc1C(c1ccccn1)=NN2CCOC(=O)N(C)C [Compound 317] | 5 mg/kg | 0.22 to 0.38 min | 4.08 to 25.97 min | 18.73 to 70.28 min | 4 | 20 mg/kg | 10 mg/kg |  |  |  |  |
| Cc1cnc2n1-c1ccc(Br)cc1C(c1ccccn1)=NC2CCOC(=O)N(C)C.O=S(=O)(O)c1ccccc1 (stereo not shown) [Compound 156D] |  | 0.2 to 0.6 min | 0.6 to 10.9 min | 12.8 to 36.9 min |  |  |  | >7.5 mg/kg |  | 5.0 mg/kg | >1.5 |
| C#CC(C)(C)OC(=O)CCC1N=C(c2ccccn2)c2cc(Br)ccc2N(C)C1=O (stereo not shown) [Compound 17] |  | 0.2 to 0.5 min | 1.6 to 3.3 min | 6.6 to 9.9 min |  |  |  | >5 mg/kg |  | 1.3 mg/kg | >3.8 |
| C#CC(C)(C)OC(=O)CCC1N=C(c2ccccn2)c2cc([N+](=O)[O-])ccc2N(C)C1=O (stereo not shown) [Compound 32] |  | 0.2 to 0.4 min | 1.8 to 7.7 min | 21.1 to 45.7 min |  |  |  | 30 mg/kg |  | 5.0 mg/kg | 6.0 |
| CC(=O)C(C)(C)OC(=O)CCC1N=C(c2ccccn2)c2cc(Br)ccc2N(C)C1=O (stereo not shown) [Compound 18] |  | 0.2 to 0.9 min | 0.8 to 4.2 min | 4.5 to 10.7 min |  |  |  | >1.2 mg/kg |  | 0.5 mg/kg | >2.4 |
| CN1C(=O)N(CC(=O)OC2(C)COC2)N=C(c2ccccn2)c2cc(Br)ccc21 [Compound 253] | 10 mg/kg | 0.87 to 0.88 min | 1.38 to 11.07 min | 10.13 to 31.28 min | 3 | 30 mg/kg | 20 mg/kg |  |  |  |  |
| CC[C@H](C)OC(=O)CN1N=C(c2ccccn2)c2cc(Br)ccc2N(C)C1=O [Compound 242] | 7.5 mg/kg | 0.28 to 0.55 min | 5.05 to 18.42 min | 19.98 to 46.92 min | 4 | 30 mg/kg |  |  |  |  |  |
| Cc1cnc2n1-c1ccc(Br)cc1C(c1ccccn1)=NC2COC(=O)CN(C)C (stereo not shown) [Compound 196] |  | 0.2 to 1.4 min | 9.5 to 23.6 min | 214.5 to 403.5 min |  |  |  | 50 mg/kg |  | 15 mg/kg | 3.3 |
| Cc1cnc2n1-c1ccc(Br)cc1C(c1ccccn1)=NC2COS(=O)c1ccccc1 (stereo not shown) [Compound 195] |  | 0.2 to 0.5 min | 5.3 to 76.6 min | 78.5 to 195.4 min |  |  |  | >21.8 mg/kg | 21.8 mg/kg | 7.5 mg/kg | >2.9 |
| CC(C)n1nnnc1CCN1N=C(c2ccccn2)c2cc(Br)ccc2N(C)C1=O [Compound 266] | 5 mg/kg | 0.40 to 0.52 min | 0.58 to 4.00 min | 12.07 to 16.32 min | 3 |  |  | 15 mg/kg |  |  |  |
| C=C1N=C(c2ccccn2)c2cc(Br)ccc2N(C)C1=O [Compound 36] |  | 0.4 to 0.9 min | 0.7 to 4.1 min | 8.6 to 14.7 min |  |  |  | 18.7 mg/kg |  | 10.0 mg/kg | 1.9 |

— patent publication EP4711368A1 (priority 2023, dated 2024)
